Measured values as given in the NIST ThermoML archive (doi:10.1016/j.jct.2014.06.021).
± gives the expanded uncertainty stated by the source.

Legend:
[1] = Molar enthalpy of transition or fusion; conditions: Crystal; DSC
[2] = Crystal; DTA

Molar enthalpy of transition or fusion [1]: 14.3 ± 0.359 kcal/mol
Normal melting temperature [2]: 184.67 ± 0.53 °C
SMILES: O=P(Oc1ccccc1)(Oc1ccccc1)N1CCN(P(=O)(Oc2ccccc2)Oc2ccccc2)CC1 [tetraphenyl piperazine-1,4-diylbis(phosphonate)]
